Patent US8455648B2, “1-(7-(hexahydropyrrolo [3,4-c] pyrrol-2 (1H)-yl) quinolin-4-yl) -3- (pyrazin-2-yl) urea derivatives and related compounds as glycogen synthase kinase 3 (GSK-3)” (Abbott GmbH & Co. KG, priority 2008, dated 2013)

target: T1, human Glycogen Synthase Kinase-3 beta (hGSK-3β) (Homo sapiens, UniProt P49841); assay: Biochemical hGSK-3beta assay (33P-ATP phosphorylation of biotinylated peptide substrate); conditions: 10 μM ATP, 1 μM substrate, 30 minutes at room temperature; read-out: GSK-3β IC50
T1 construct: purchased Upstate cell signaling solutions
Experimental: Methods—Biochemical hGSK-3Beta Assay
Compounds were tested for their ability to inhibit human Glycogen Synthase Kinase-3 beta (hGSK-3β) to phosphorylate biotin-[…](pS)EDEEE. Compounds were incubated with 0.5 μCi 33P-ATP, 10 μM ATP, 0.0125U hGSK-3β (Upstate cell signaling solutions) and 1 μM substrate (biotin-[…](pS)EDEEE) in 50 mM HEPES, 10 mM MgCl2, […], 1 mM DTT, 0.0075% Triton, 2% DMSO (total volume 50 μL) for 30 minutes at room temperature. The incubation was stopped by addition of an equal volume of 100 mM EDTA, 4M NaCl. 80 μL of this mixture was added to streptavidin-coated Flashplates (PerkinElmer). Following a wash step, 33P incorporation was quantified on a MicroBeta microplate liquid scintillation counter (PerkinElmer). IC50s were determined by fitting a sigmoidal dose-response curve to the counts obtained at the different concentrations in GraphPad Prism.

T1 sequence (P49841 whole entry): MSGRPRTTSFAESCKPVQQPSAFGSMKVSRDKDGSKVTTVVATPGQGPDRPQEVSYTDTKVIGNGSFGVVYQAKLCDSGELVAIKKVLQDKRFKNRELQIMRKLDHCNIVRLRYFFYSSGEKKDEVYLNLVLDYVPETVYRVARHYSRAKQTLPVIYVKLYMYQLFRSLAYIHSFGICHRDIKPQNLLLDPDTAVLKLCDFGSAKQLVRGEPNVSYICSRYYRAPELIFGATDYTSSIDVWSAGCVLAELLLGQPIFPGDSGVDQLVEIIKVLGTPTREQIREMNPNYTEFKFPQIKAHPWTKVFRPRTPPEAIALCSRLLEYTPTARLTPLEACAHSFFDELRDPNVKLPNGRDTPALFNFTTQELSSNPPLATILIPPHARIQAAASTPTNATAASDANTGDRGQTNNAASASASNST

Row | SMILES | IC50
1 | COc1ccc2c(NC(=O)Nc3cncc(N4C[C@H]5CN(C(=O)OC(C)(C)C)C[C@H]5C4)n3)ccnc2c1 [Example 3, (3aR,6aS)-tert-butyl 5-(6-(3-(7-methoxyquinolin-4-yl)ureido)pyrazin-2-yl)-hexahydropyrrolo[3,4-c]pyrrole-2(1H)-carboxylate] | 100 to 10000 nM
2 | O=C(Nc1cnccn1)Nc1ccnc2cc(N3C[C@@H]4C[C@H]3CN4)ccc12 [Example 7, 1-(7-((1S,4S)-2,5-Diazabicyclo[2.2.1]heptan-2-yl)quinolin-4-yl)-3-(pyrazin-2-yl)urea] | 100 to 10000 nM
3 | CC(C)(C)OC(=O)N1C[C@@H]2CN(c3ccc4c(NC(=O)Nc5cnccn5)ccnc4c3)C[C@@H]2C1 [Example 1, (3aR,6aS)-Tert-butyl 5-(4-(3-pyrazin-2-ylureido)quinolin-7-yl)-hexahydropyrrolo[3,4-c]pyrrole-2(1H)-carboxylate] | 100 to 10000 nM

The next lines start with the values.

Row | IC50 | SMILES
4 | 100 to 10000 nM | O=C(Nc1cnccn1)Nc1ccnc2cc(N3CC4CCNC4C3)ccc12 (stereo not shown) [Example 12, 1-(7-(Hexahydropyrrolo[3,4-b]pyrrol-5(1H)-yl)quinolin-4-yl)-3-(pyrazin-2-yl)urea]
5 | < 100 nM | COc1ccc2c(NC(=O)Nc3cccc(N4C[C@@H]5C[C@H]4CO5)n3)ccnc2c1 [Example 10, 1-(6-((1S,4S)-2-Oxa-5-azabicyclo[2.2.1]heptan-5-yl)pyridin-2-yl)-3-(7-methoxyquinolin-4-yl)urea]
6 | < 100 nM | COc1ccc2c(NC(=O)Nc3cccc(N4CC5COCC5C4)n3)ccnc2c1 (stereo not shown) [Example 9, 1-(6-(Dihydro-1H-furo[3,4-c]pyrrol-5(3H,6H,6aH)-yl)pyridin-2-yl)-3-(7-methoxyquinolin-4-yl)urea]
7 | 100 to 10000 nM | CC(C)(C)OC(=O)N1C[C@@H]2C[C@H]1CN2c1ccc2nccc(NC(=O)Nc3cnccn3)c2c1 [Example 11, (1S,4S)-Tert-butyl 5-(4-(3-pyrazin-2-ylureido)quinolin-6-yl)-2,5-diazabicyclo[2.2.1]heptane-2-carboxylate]
